In PMC9694965, “Design of 4-Substituted Sulfonamidobenzoic Acid Derivatives Targeting Coxsackievirus B3” (Life, 2022):

What was measured:
CVB3 Nancy [1] = assay: Cytoprotection assay (MTT) in Vero cells infected with CVB3 Nancy; format: cell-based, Coxsackievirus B3
Procedure: (§1) Vero cells were seeded in 96-well plates in 24 h before the assay. On the assay day, the cells were washed with saline and tested compounds in appropriate concentrations (300–3 μg/mL) in MEM without FBS were added to cells. No compounds were added to virus control wells. The plates were incubated for 1 h at 37 °C at 5% CO2. The cells were then infected with CVB3 Nancy (m.o.i range of 1–0.001) and incubated for 72 h at 37 °C at 5% CO2. No virus was added to the cytotoxicity control wells. Cell viability was then assessed using an MTT test with the following procedure. The cells were washed with saline, and a solution of 3-(4,5-dimethylthiazolyl-2) 2,5-diphenyltetrazolium bromide (ICN Biochemicals Inc., Aurora, OH, USA) ([…]) in MEM was added to the wells (100 µL per well). After 2 h of incubation at 37 °C in 5% CO2, the supernatant from wells was discarded, and the formazan residue was dissolved in DMSO (100 µL per well). The optical density of cells was then measured on a Multiskan multifunctional reader (Thermo Fisher Scientific, Shanghai, China) at a wavelength of 540 nm.
The cytoprotective activity of compounds was considered to be their ability to increase the values of OD compared to control wells (using only a virus, without drugs). Based on the results obtained, the values of IC50, i.e., the concentration of compounds that result in 50% cells protection were calculated for m.o.i. 0.001 using GraphPad Prism 6.01 software.

[2] = Cytotoxicity assay (MTT) in Vero cells; format: cell-based; conditions: African green monkey
Procedure: as §1
(§2) The microtetrazolium test (MTT) was used to study the cytotoxicity of the compounds. The permissive cell line Vero was seeded in 96-well plates in Eagles minimal essential medium (MEM) supplemented with 10% FBS. After 24 h, the media were removed, and the wells were washed with saline. Compounds were dissolved in DMSO, and a series of two-fold dilutions of each compound in MEM without FBS were prepared and added to the cells in triplicates. […] The MTT was then performed as described above. Next, the optical density of cells was measured on a Multiskan multifunctional reader (Thermo Fisher Scientific, Shanghai, China) at a wavelength of 540 nm and plotted against the concentration of the compounds to generate the dose–response curve. The 50% cytotoxic dose (CC50) of each compound (i.e., the compound concentration that causes the death of 50% of cells in a culture, or decreases the optical density twice, as compared to the control wells) was calculated using a four-parameter logistic nonlinear regression model (GraphPad Prism 6.01).

Vero cells = assay: Cytotoxicity assay (MTT) in Vero cells; format: cell-based; conditions: incubation with the compound only
Procedure: as §1, §2

[3] = test system: Coxsackievirus B3 (Nancy); assay: Viral yield reduction assay in Vero cells; format: cell-based
Procedure: Coxsackievirus B3 (CVB3, strain Nancy) was obtained from the collection of viruses of the Pasteur Institute (St. Petersburg, Russia). The permissive cell line Vero (ATCC #CCL-81) was used in the study. Infectious titers (in a 50%-tissue culture infection dose, TCID50) were determined in Vero cells for CVB3 by endpoint dilution assay using the following procedure. Permissive cells were seeded into 96-wells plates in Eagles minimal essential medium (MEM) supplemented with 5% fetal bovine serum (FBS). After 24 h, the medium was aspirated, the wells were washed with saline, fresh MEM without FBS was added to the wells and the cells were infected with serial tenfold dilutions of virus stocks (100 µL per well, 4 wells for each dilution). The plates were incubated at +37 °C in 5% CO2 and observed daily for cytopathic effect (CPE). After 72 h the viral titer was calculated in TCID50 using the method of Spearmen-Carber.
The antiviral activity of the compounds was evaluated using viral yield reduction assay. The respective permissive cell line Vero was seeded in MEM supplemented with 5% FBS in 24-well plates. When the cell confluence reached 100%, the compounds tested were dissolved in DMSO, and a series of three-fold dilutions of each compound in MEM without FBS was added to the cells, and incubated at 37 °C in 5% CO2. After 1 h, the media were discarded; equal volumes of fresh serial dilutions of each compound and viral suspension in MEM without FBS at […] were added. In control wells, only MEM without FBS was added. No compounds were added in the virus control wells. The plates were incubated at 4 °C for 1 h. The unbound virus was then washed away and, again, three-fold dilutions of each compound (the final concentration 50–0.6 µg/mL) in MEM without FBS were added to the wells. After 24 h of incubation at 37 °C in 5% CO2, the infectious titer of viral progeny (in TCID50) for each compound concentration, cell control, and virus control wells were determined in permissive cell lines by endpoint dilution assay as described above.
The titer of virus progeny was plotted against log concentration of the compounds tested to generate the dose–response curve. The 50% inhibition concentration (IC50) of each compound tested (i.e., the compound concentration that decreases the infectious viral progeny titer twice, as compared to the control wells) was calculated using a four-parameter logistic nonlinear regression model (GraphPad Prism 6.01).

CVB3 Nancy [4] = assay: Thermostability assay (capsid binding, heat inactivation of virus); parameters: species or system Coxsackievirus B3; conditions: pre-incubation 30 min at 37 °C, thermal gradient 37-55 °C for 2 min
Procedure: CVB3 Nancy was pre-incubated with the compounds tested or an equal volume of MEM (virus control) for 30 min at +37 °C in sterile thin-walled 200 μL PCR-tubes (7 tubes per each treatment condition) in BioRad CFX PCR-machine. The thermal gradient of 37–55 °C for 2 min was then applied, followed by rapid cooling to 4 °C. Subsequently, the infectious virus load at each thermal condition for each compound tested was quantified by end-point dilution assay.

SMILES: O=C(O)c1ccc(NS(=O)(=O)c2ccc(NC(=O)c3ccccc3C(=O)O)cc2)cc1 [Compound 4, 2-((4-(N-(4-Carboxyphenyl)sulfamoyl)phenyl)carbamoyl)benzoic acid]
- EC50 (CVB3 Nancy [1]; Enterovirus B, Vero cells infected with CVB3 Nancy at m.o.i. 0.001, 72 h, MTT, read-out: EC50 (50% cytoprotective concentration)): 13.2 ± 1.49 µM
- SI (selectivity index, ratio CC50/IC50) (CVB3 Nancy [1]; cytoprotection assay, CC50 72 h / EC50): >17.2
- CC50 at 24 h ([2]; 24 h incubation with the compound only): > 1140 µM
- CC50 at 72 h ([2]; 72 h incubation with the compound only): > 227 µM
- CC50 (Vero cells): exceeded the maximum concentration used in the assay
- IC50 ([3]; Enterovirus B, B3 / CVB3, viral yield reduction, Vero cells, CVB3 Nancy at m.o.i. 0.01, 24 h, read-out: IC50 (50% virus-inhibiting concentration)): 4.29 ± 1.79 µM
- SI (selectivity index, ratio CC50/IC50) ([3]; viral yield reduction assay, CC50 24 h / IC50): >264
- Temperature to which infectivity of CVB3 was preserved (CVB3 Nancy [4]; concentrations greatly exceeding IC50): 52.4 °C
- Effect on heat inactivation of CVB3 (capsid stabilization) (CVB3 Nancy [4]; versus virus control): heat inactivation of CVB3 changed to higher temperatures
- melting point: 203 to 205 °C
